{"source": "paper PMC10224356", "about": "“Trisubstituted 1,3,5-Triazines as Histamine H4 Receptor Antagonists with Promising Activity In Vivo” (Molecules, 2023)", "target": "T1, human histamine H4 receptor (Homo sapiens, UniProt Q9H3N8)", "T1 construct": "made in house; host or cells: Sf9 cells (membrane preparations)", "T1 sequence (Q9H3N8 whole entry)": "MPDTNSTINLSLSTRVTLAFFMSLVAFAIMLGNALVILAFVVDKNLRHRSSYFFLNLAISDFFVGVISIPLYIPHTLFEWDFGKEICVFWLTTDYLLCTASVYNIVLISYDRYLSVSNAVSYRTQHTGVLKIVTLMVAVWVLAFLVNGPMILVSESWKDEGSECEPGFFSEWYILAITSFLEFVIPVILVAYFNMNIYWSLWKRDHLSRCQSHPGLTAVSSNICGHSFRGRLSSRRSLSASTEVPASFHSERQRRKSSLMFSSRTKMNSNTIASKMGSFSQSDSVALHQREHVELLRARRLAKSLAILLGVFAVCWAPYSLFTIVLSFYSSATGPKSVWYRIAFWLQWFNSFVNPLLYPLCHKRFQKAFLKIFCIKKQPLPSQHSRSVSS", "test": "[3H]histamine displacement assay, membranes of Sf9 cells expressing hH4R with Gαi2 and Gβ1γ2", "assay_type": "binding", "conditions": "Sf9 membranes, mean within 95% CI", "method": "The affinity of compounds 2–20 for hH4R was evaluated in a binding assay as previously described. [^3H]Histamine was used as a radioligand and hH4R was expressed in Sf9 cells with G protein Gαi2 and Gβ1γ2 subunits. The pharmacological results represented as Ki values are listed in Table 1 (for alicyclic derivatives) and Table 2 (for aliphatic derivatives). […] Results depended on the substituent in the four positions of a triazine (a main structure).\nAffinities of all triazine derivatives were determined in a [^3H] histamine (f.c. 10 nM) displacement assay using membrane preparations from Sf9 cells expressing human H4R and co-expressed with Gαi2 and Gβ1γ2 subunits as described previously. Nonspecific binding was determined in the presence of unlabelled JNJ7777120 ([…])."}
{"smiles": "CN1CCN(c2nc(N)nc(CC3CCCC3)n2)CC1", "note": "[Compound 6, 4-(Cyclopentylmethyl)-6-(4-methylpiperazin-1-yl)-1,3,5-triazin-2-amine]", "values": [{"measurement": "Ki", "result": 63, "unit": "nM"}]}
